# pEC50, pIC50: −log10 of the molar value.
# Assays:
# [1] = molecular target: Recombinant human Cbl-b (aa 36-427) (Homo sapiens, UniProt Q13191); assay: Cbl-b Biochemical Assay (TR-FRET); settings: read-out: TR-FRET hCbl-b IC50
# [2] = tested on: Jurkat (clone E6-1) cells with NFAT luciferase reporter; assay: Jurkat reporter assay (NFAT Luciferase); type: cell-based; settings: Homo sapiens; Jurkat NFAT luciferase reporter cells, anti-CD3 stimulation, 6 hr; read-out: Jurkat NFAT EC50
# [3] = molecular target: T1, Recombinant human c-Cbl (aa 47-435) (Homo sapiens, UniProt P22681); assay: c-Cbl Biochemical Assay (TR-FRET); settings: hc-Cbl Biochemical Assay (TR-FRET); read-out: TR-FRET hcCbl IC50
# T1 sequence (P22681 47-435): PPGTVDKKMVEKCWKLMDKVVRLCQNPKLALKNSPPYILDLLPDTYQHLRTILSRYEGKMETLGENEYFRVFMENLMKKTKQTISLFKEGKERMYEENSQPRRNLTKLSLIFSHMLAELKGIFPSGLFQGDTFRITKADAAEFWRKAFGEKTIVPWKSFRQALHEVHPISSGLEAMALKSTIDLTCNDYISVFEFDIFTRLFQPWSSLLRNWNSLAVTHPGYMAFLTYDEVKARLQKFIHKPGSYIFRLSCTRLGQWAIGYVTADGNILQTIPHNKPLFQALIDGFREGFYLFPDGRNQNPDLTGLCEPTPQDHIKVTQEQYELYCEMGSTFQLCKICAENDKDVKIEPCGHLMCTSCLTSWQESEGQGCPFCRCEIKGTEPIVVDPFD
# Recombinant human Cbl-b (aa 36-427), sequence (Q13191 36-427): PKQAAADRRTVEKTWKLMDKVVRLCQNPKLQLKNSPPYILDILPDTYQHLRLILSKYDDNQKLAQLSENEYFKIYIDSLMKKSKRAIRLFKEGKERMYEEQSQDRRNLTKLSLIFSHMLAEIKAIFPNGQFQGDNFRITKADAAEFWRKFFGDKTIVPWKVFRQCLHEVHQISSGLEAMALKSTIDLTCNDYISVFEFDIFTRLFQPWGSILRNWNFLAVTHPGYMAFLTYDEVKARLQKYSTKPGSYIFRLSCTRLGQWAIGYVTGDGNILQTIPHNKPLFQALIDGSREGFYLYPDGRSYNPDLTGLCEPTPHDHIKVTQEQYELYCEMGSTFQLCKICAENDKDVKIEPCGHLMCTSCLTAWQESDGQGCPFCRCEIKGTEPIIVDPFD
SMILES,pIC50 [1],pEC50 [2],pIC50 [3]
"Cn1cnnc1-c1cc(F)ccc1-c1cccc(-c2nc3cc(CN4CCCC[C@@H]4CO)cc(C(F)(F)F)c3o2)c1 [IV-2, (R)-(1-((2-(4′-Fluoro-2′-(4-methyl-4H-1,2,4-triazol-3-yl)-[1,1′-biphenyl]-3-yl)-7-(trifluoromethyl)benzo[d]oxazol-5-yl)methyl)piperidin-2-yl)methanol]",> 6.70,6.00 to 6.70,6.00 to 6.70
"Cn1cnnc1-c1cc(F)ccc1-c1cccc(-c2nc3cc(CNCC4(O)CCC4)c(F)c(F)c3o2)c1 [IW-1, 1-((((6,7-Difluoro-2-(4′-fluoro-2′-(4-methyl-4H-1,2,4-triazol-3-yl)-[1,1′-biphenyl]-3-yl)benzo[d]oxazol-5-yl)methyl)amino)methyl)cyclobutan-1-ol]",> 6.70,> 6.70,> 6.70
"Cn1cnnc1-c1cc(F)ccc1-c1cccc(-c2nc3cc(CNCC4CCC4)c(F)c(F)c3o2)c1 [IX-1, 1-Cyclobutyl-N-((6,7-difluoro-2-(4′-fluoro-2′-(4-methyl-4H-1,2,4-triazol-3-yl)-[1,1′-biphenyl]-3-yl)benzo[d]oxazol-5-yl)methyl)methanamine]",> 6.70,> 6.70,> 6.70
"COCCNCc1cc2nc(-c3cccc(-c4ccc(F)cc4-c4nncn4C)c3)oc2c(F)c1F [IY-1, N-((6,7-Difluoro-2-(4′-fluoro-2′-(4-methyl-4H-1,2,4-triazol-3-yl)-[1,1′-biphenyl]-3-yl)benzo[d]oxazol-5-yl)methyl)-2-methoxyethan-1-amine]",> 6.70,> 6.70,> 6.70
"Cn1cnnc1-c1cc(F)ccc1-c1cccc(-c2nc3cc(CNCC4(O)CCC4)cc(F)c3o2)c1 [IZ-1, 1-((((7-Fluoro-2-(4′-fluoro-2′-(4-methyl-4H-1,2,4-triazol-3-yl)-[1,1′-biphenyl]-3-yl)benzo[d]oxazol-5-yl)methyl)amino)methyl)cyclobutan-1-ol]",> 6.70,> 6.70,> 6.70
"Cn1cnnc1-c1cc(F)ccc1-c1cccc(-c2nc3cc(CN4CCCC[C@H]4CO)cc(C(F)(F)F)c3o2)c1 [JB-2, (S)-(1-((2-(4′-Fluoro-2′-(4-methyl-4H-1,2,4-triazol-3-yl)-[1,1′-biphenyl]-3-yl)-7-(trifluoromethyl)benzo[d]oxazol-5-yl)methyl)piperidin-2-yl)methanol]",> 6.70,5.00 to 6.00,5.00 to 6.00
"COCCNCc1cc(C)c2oc(-c3cccc(-c4ccc(F)cc4-c4nncn4C)c3)nc2c1F [JC-1, N-((4-Fluoro-2-(4′-fluoro-2′-(4-methyl-4H-1,2,4-triazol-3-yl)-[1,1′-biphenyl]-3-yl)-7-methylbenzo[d]oxazol-5-yl)methyl)-2-methoxyethan-1-amine]",6.00 to 6.70,5.00 to 6.00,5.00 to 6.00
"Cn1cnnc1-c1cc(F)ccc1-c1cccc(-c2nc3cc(CNCC(C)(C)O)c(F)c(F)c3o2)c1 [JD-1, 1-(((6,7-Difluoro-2-(4′-fluoro-2′-(4-methyl-4H-1,2,4-triazol-3-yl)-[1,1′-biphenyl]-3-yl)benzo[d]oxazol-5-yl)methyl)amino)-2-methylpropan-2-ol]",> 6.70,> 6.70,> 6.70
"Cn1cnnc1-c1cc(F)ccc1-c1cccc(-c2nc3cc(CNCC4COC4)c(F)c(F)c3o2)c1 [JE-1, 1-(6,7-Difluoro-2-(4′-fluoro-2′-(4-methyl-4H-1,2,4-triazol-3-yl)-[1,1′-biphenyl]-3-yl)benzo[d]oxazol-5-yl)-N-(oxetan-3-ylmethyl)methanamine]",> 6.70,> 6.70,6.00 to 6.70
"Cn1cnnc1-c1cc(F)ccc1-c1cccc(-c2nc3cc(CNC4CCC4)c(F)c(F)c3o2)c1 [JF-1, N-((6,7-Difluoro-2-(4′-fluoro-2′-(4-methyl-4H-1,2,4-triazol-3-yl)-[1,1′-biphenyl]-3-yl)benzo[d]oxazol-5-yl)methyl)cyclobutanamine]",> 6.70,> 6.70,6.00 to 6.70
"Cn1cnnc1-c1cc(F)ccc1-c1cccc(-c2nc3cc(CNCC4(O)CCC4)cc(C4CC4)c3o2)c1 [JG-1, 1-((((7-Cyclopropyl-2-(4′-fluoro-2′-(4-methyl-4H-1,2,4-triazol-3-yl)-[1,1′-biphenyl]-3-yl)benzo[d]oxazol-5-yl)methyl)amino)methyl)cyclobutan-1-ol]",> 6.70,> 6.70,> 6.70
"COCCNCc1cc(C2CC2)c2oc(-c3cccc(-c4ccc(F)cc4-c4nncn4C)c3)nc2c1 [JH-1, N-((7-Cyclopropyl-2-(4′-fluoro-2′-(4-methyl-4H-1,2,4-triazol-3-yl)-[1,1′-biphenyl]-3-yl)benzo[d]oxazol-5-yl)methyl)-2-methoxyethan-1-amine]",> 6.70,> 6.70,> 6.70
"Cn1cnnc1-c1cc(F)ccc1-c1cccc(-c2nc3cc(CN[C@@H]4CCC[C@@]4(O)C(F)(F)F)cc(C(F)(F)F)c3o2)c1 [JI-3, (1S,2R)-2-(((2-(4′-Fluoro-2′-(4-methyl-4H-1,2,4-triazol-3-yl)-[1,1′-biphenyl]-3-yl)-7-(trifluoromethyl)benzo[d]oxazol-5-yl)methyl)amino)-1-(trifluoromethyl)cyclopentan-1-ol]",> 6.70,> 6.70,> 6.70
"CN(Cc1cc2nc(-c3cccc(-c4ccc(F)cc4-c4nncn4C)c3)oc2c(F)c1F)[C@@H]1CCC[C@@H]1O [JJ-3, (1S,2R)-2-(((6,7-Difluoro-2-(4′-fluoro-2′-(4-methyl-4H-1,2,4-triazol-3-yl)-[1,1′-biphenyl]-3-yl)benzo[d]oxazol-5-yl)methyl)(methyl)amino)cyclopentan-1-ol]",> 6.70,6.00 to 6.70,> 6.70
"COCCNC(COC)c1cc(C)c2oc(-c3cccc(-c4ccc(F)cc4-c4nncn4C)c3)nc2c1 (stereo not drawn) [JK-7, 1-(2-(4′-Fluoro-2′-(4-methyl-4H-1,2,4-triazol-3-yl)-[1,1′-biphenyl]-3-yl)-7-methylbenzo[d]oxazol-5-yl)-2-methoxy-N-(2-methoxyethyl)ethan-1-amine]",> 6.70,5.00 to 6.00,6.00 to 6.70
"Cn1cnnc1-c1cc(F)ccc1-c1cc(-c2nc3cc(CNCC(C)(C)O)cc(C(F)(F)F)c3o2)cc(C2CC2)c1 [JL-1, 1-(((2-(5-Cyclopropyl-4′-fluoro-2′-(4-methyl-4H-1,2,4-triazol-3-yl)-[1,1′-biphenyl]-3-yl)-7-(trifluoromethyl)benzo[d]oxazol-5-yl)methyl)amino)-2-methylpropan-2-ol]",> 6.70,> 6.70,> 6.70
"Cn1cnnc1-c1cc(F)ccc1-c1cc(-c2nc3cc(CN[C@@H]4CCC[C@@H]4O)cc(F)c3o2)cc(C2CC2)c1 [JM-4, (1S,2R)-2-(((2-(5-Cyclopropyl-4′-fluoro-2′-(4-methyl-4H-1,2,4-triazol-3-yl)-[1,1′-biphenyl]-3-yl)-7-fluorobenzo[d]oxazol-5-yl)methyl)amino)cyclopentan-1-ol]",> 6.70,> 6.70,> 6.70
"Cn1cnnc1-c1cc(F)ccc1-c1cccc(-c2nc3cc(CNCC(C)(C)O)cc(F)c3o2)c1 [JN-1, 1-(((7-Fluoro-2-(4′-fluoro-2′-(4-methyl-4H-1,2,4-triazol-3-yl)-[1,1′-biphenyl]-3-yl)benzo[d]oxazol-5-yl)methyl)amino)-2-methylpropan-2-ol]",> 6.70,> 6.70,> 6.70
"Cn1cnnc1-c1cc(F)ccc1-c1cc(-c2nc3cc(CNCC4CCC4)cc(F)c3o2)cc(C2CC2)c1 [JO-1, 1-Cyclobutyl-N-((2-(5-cyclopropyl-4′-fluoro-2′-(4-methyl-4H-1,2,4-triazol-3-yl)-[1,1′-biphenyl]-3-yl)-7-fluorobenzo[d]oxazol-5-yl)methyl)methanamine]",> 6.70,> 6.70,> 6.70
"C[C@H](O)CNCc1cc(F)c2oc(-c3cccc(-c4ccc(F)cc4-c4nncn4C)c3)nc2c1 [JP-1, (S)-1-(((7-Fluoro-2-(4′-fluoro-2′-(4-methyl-4H-1,2,4-triazol-3-yl)-[1,1′-biphenyl]-3-yl)benzo[d]oxazol-5-yl)methyl)amino)propan-2-ol]",> 6.70,> 6.70,> 6.70
"Cn1cnnc1-c1cc(F)ccc1-c1cc(-c2nc3cc(CNCC(C)(C)O)cc(F)c3o2)cc(C2CC2)c1 [JQ-1, 1-(((2-(5-Cyclopropyl-4′-fluoro-2′-(4-methyl-4H-1,2,4-triazol-3-yl)-[1,1′-biphenyl]-3-yl)-7-fluorobenzo[d]oxazol-5-yl)methyl)amino)-2-methylpropan-2-ol]",> 6.70,> 6.70,> 6.70
"CO[C@@H]1CCCN(Cc2cc(C(F)(F)F)c3oc(-c4cccc(-c5ccc(F)cc5-c5nncn5C)c4)nc3c2)C1 [JR-2, (R)-2-(4′-Fluoro-2′-(4-methyl-4H-1,2,4-triazol-3-yl)-[1,1′-biphenyl]-3-yl)-5-((3-methoxypiperidin-1-yl)methyl)-7-(trifluoromethyl)benzo[d]oxazole]",> 6.70,6.00 to 6.70,6.00 to 6.70

# Reference: patent US20250163038A1, “CBL-B MODULATORS AND USES THEREOF” (Nimbus Clio, Inc., priority 2021, published 2025)
